Assays:
[1] = AUC (0 to t) in F344/DuCrlCrlj rat at 0.5 mg/kg, iv administered via tail vein by LC-MS/MS analysis; assay type: ADME, organism-based; parameters: dose 0.5 mg/kg, dosed compound name [14C]Rivoglitazone, route intravenous; conditions: plasma
[2] = Terminal elimination half life in F344/DuCrlCrlj rat at 0.1 mg/kg, po administered via gavage by LC-MS/MS analysis; assay type: ADME, organism-based; parameters: dose 0.1 mg/kg, dosed compound name [14C]Rivoglitazone, route oral; conditions: in vivo, read-out: beta t1/2 (converted)
[3] = AUC (0 to t) in monkey at 0.493 mg/kg, iv administered via tail vein by LC-MS/MS analysis; assay type: ADME, organism-based, Macaca mulatta; parameters: dose 0.493 mg/kg, dosed compound name [14C]Rivoglitazone, route intravenous; conditions: rhesus monkey, plasma
[4] = Retention time of the compound by LC-MS/MS analysis; assay type: physicochemical; parameters: dosed compound name [14C]Rivoglitazone
[5] = Tmax in F344/DuCrlCrlj rat at 1 mg/kg, po administered via gavage by LC-MS/MS analysis; assay type: ADME, organism-based; parameters: dose 1 mg/kg, dosed compound name [14C]Rivoglitazone, route oral; conditions: in vivo
[6] = Tmax in monkey at 0.986 mg/kg, po administered via gavage by LC-MS/MS analysis; assay type: ADME, organism-based, Macaca mulatta; parameters: dose 0.986 mg/kg, dosed compound name [14C]Rivoglitazone, route oral; conditions: rhesus monkey, in vivo
Rattus norvegicus = assay: Drug uptake in F344/DuCrlCrlj rat plasma assessed as unchanged compound at 1 to 5 mg/kg, po administered as single dose via gavage by LC-MS/MS analysis; assay type: ADME, organism-based; parameters: dose 1-5 mg/kg, dosed compound name [14C]Rivoglitazone, route oral; conditions: in vivo
[7] = AUC (0 to infinity) in F344/DuCrlCrlj rat at 0.1 mg/kg, iv administered via tail vein by LC-MS/MS analysis; assay type: ADME, organism-based; parameters: time infinity, dose 0.1 mg/kg, dosed compound name [14C]Rivoglitazone, route intravenous; conditions: plasma
[8] = Apparent total clearance in F344/DuCrlCrlj rat at 0.1 mg/kg, po administered via gavage by LC-MS/MS analysis; assay type: ADME, organism-based; parameters: dose 0.1 mg/kg, dosed compound name [14C]Rivoglitazone, route oral; conditions: in vivo, read-out: CLt/F
[9] = AUC (0 to infinity) in monkey at 0.986 mg/kg, po administered via gavage by LC-MS/MS analysis; assay type: ADME, organism-based, Macaca mulatta; parameters: time infinity, dose 0.986 mg/kg, dosed compound name [14C]Rivoglitazone, route oral; conditions: rhesus monkey, plasma
[10] = AUC (0 to t) in monkey at 0.0986 mg/kg, po administered via gavage by LC-MS/MS analysis; assay type: ADME, organism-based, Macaca mulatta; parameters: dose 0.0986 mg/kg, dosed compound name [14C]Rivoglitazone, route oral; conditions: rhesus monkey, plasma
[11] = Apparent total clearance in monkey at 0.986 mg/kg, po administered via gavage by LC-MS/MS analysis; assay type: ADME, organism-based, Macaca mulatta; parameters: dose 0.986 mg/kg, dosed compound name [14C]Rivoglitazone, route oral; conditions: rhesus monkey, in vivo, read-out: CLt/F
[12] = Cmax in monkey at 0.986 mg/kg, po administered via gavage by LC-MS/MS analysis; assay type: ADME, organism-based, Macaca mulatta; parameters: dose 0.986 mg/kg, dosed compound name [14C]Rivoglitazone, route oral; conditions: rhesus monkey, in vivo
[13] = Terminal elimination half life in F344/DuCrlCrlj rat at 0.5 mg/kg, po administered via gavage by LC-MS/MS analysis; assay type: ADME, organism-based; parameters: dose 0.5 mg/kg, dosed compound name [14C]Rivoglitazone, route oral; conditions: in vivo, read-out: beta t1/2 (converted)
[14] = Drug excretion in F344/DuCrlCrlj rat feces assessed as unchanged compound at 1 mg/kg, po administered via gavage measured during 0 to 48 hrs by radio-HPLC analysis; assay type: ADME, organism-based; parameters: dose 1 mg/kg, dosed compound name [14C]Rivoglitazone, route oral; conditions: read-out: Compound recovery
[15] = Total clearance in monkey at 0.986 mg/kg, iv administered via tail vein by LC-MS/MS analysis; assay type: ADME, organism-based, Macaca mulatta; parameters: dose 0.986 mg/kg, dosed compound name [14C]Rivoglitazone, route intravenous; conditions: rhesus monkey, in vivo
[16] = Terminal elimination half life in monkey at 0.493 mg/kg, po administered via gavage by LC-MS/MS analysis; assay type: ADME, organism-based, Macaca mulatta; parameters: dose 0.493 mg/kg, dosed compound name [14C]Rivoglitazone, route oral; conditions: rhesus monkey, in vivo, read-out: beta t1/2 (converted)
[17] = Total clearance in monkey at 0.493 mg/kg, iv administered via tail vein by LC-MS/MS analysis; assay type: ADME, organism-based, Macaca mulatta; parameters: dose 0.493 mg/kg, dosed compound name [14C]Rivoglitazone, route intravenous; conditions: rhesus monkey, in vivo
[18] = Tmax in monkey at 0.0986 mg/kg, po administered via gavage by LC-MS/MS analysis; assay type: ADME, organism-based, Macaca mulatta; parameters: dose 0.0986 mg/kg, dosed compound name [14C]Rivoglitazone, route oral; conditions: rhesus monkey, in vivo
[19] = Oral bioavailability in monkey at 0.0986 mg/kg administered via gavage by LC-MS/MS analysis; assay type: ADME, organism-based, Macaca mulatta; parameters: dosed compound name [14C]Rivoglitazone; conditions: rhesus monkey, in vivo
Plasma [20] = assay: Drug uptake in monkey plasma assessed as unchanged compound at 1 to 5 mg/kg, po administered as single dose via gavage by LC-MS/MS analysis; assay type: ADME, organism-based, Macaca mulatta; parameters: dose 1-5 mg/kg, dosed compound name [14C]Rivoglitazone, route oral; conditions: rhesus monkey, in vivo
[21] = Total clearance in F344/DuCrlCrlj rat at 0.5 mg/kg, iv administered via tail vein by LC-MS/MS analysis; assay type: ADME, organism-based; parameters: dose 0.5 mg/kg, dosed compound name [14C]Rivoglitazone, route intravenous; conditions: in vivo
[22] = Drug excretion in monkey urine assessed as unchanged compound at 1 mg/kg, po administered via gavage measured during 0 to 72 hrs by radio-HPLC analysis; assay type: ADME, organism-based, Macaca mulatta; parameters: dose 1 mg/kg, dosed compound name [14C]Rivoglitazone, route oral; conditions: rhesus monkey, read-out: Compound recovery
[23] = AUC (0 to t) in monkey at 0.0986 mg/kg, iv administered via tail vein by LC-MS/MS analysis; assay type: ADME, organism-based, Macaca mulatta; parameters: dose 0.0986 mg/kg, dosed compound name [14C]Rivoglitazone, route intravenous; conditions: rhesus monkey, plasma
[24] = Drug excretion in F344/DuCrlCrlj rat urine/feces assessed as unchanged compound at 1 mg/kg, po administered via gavage measured during 0 to 48 hrs by radio-HPLC analysis; assay type: ADME, organism-based; parameters: dose 1 mg/kg, dosed compound name [14C]Rivoglitazone, route oral; conditions: urine and feces, read-out: Compound recovery
[25] = Volume of distribution at steady state in F344/DuCrlCrlj rat at 0.5 mg/kg, iv administered via tail vein by LC-MS/MS analysis; assay type: ADME, organism-based; parameters: dose 0.5 mg/kg, dosed compound name [14C]Rivoglitazone, route intravenous; conditions: in vivo, read-out: Vdss
[26] = Apparent total clearance in F344/DuCrlCrlj rat at 1 mg/kg, po administered via gavage by LC-MS/MS analysis; assay type: ADME, organism-based; parameters: dose 1 mg/kg, dosed compound name [14C]Rivoglitazone, route oral; conditions: in vivo, read-out: CLt/F
[27] = Cmax in F344/DuCrlCrlj rat at 0.1 mg/kg, po administered via gavage by LC-MS/MS analysis; assay type: ADME, organism-based; parameters: dose 0.1 mg/kg, dosed compound name [14C]Rivoglitazone, route oral; conditions: in vivo
[28] = Terminal elimination half life in monkey at 0.0986 mg/kg, iv administered via tail vein by LC-MS/MS analysis; assay type: ADME, organism-based, Macaca mulatta; parameters: dose 0.0986 mg/kg, dosed compound name [14C]Rivoglitazone, route intravenous; conditions: rhesus monkey, in vivo, read-out: beta t1/2 (converted)
[29] = Tmax in monkey at 0.493 mg/kg, po administered via gavage by LC-MS/MS analysis; assay type: ADME, organism-based, Macaca mulatta; parameters: dose 0.493 mg/kg, dosed compound name [14C]Rivoglitazone, route oral; conditions: rhesus monkey, in vivo
[30] = Terminal elimination half life in F344/DuCrlCrlj rat at 1 mg/kg, po administered via gavage by LC-MS/MS analysis; assay type: ADME, organism-based; parameters: dose 1 mg/kg, dosed compound name [14C]Rivoglitazone, route oral; conditions: in vivo, read-out: beta t1/2 (converted)
Plasma [31] = assay: Drug metabolism in F344/DuCrlCrlj rat plasma assessed as 2-((4-((2,4-dioxothiazolidin-5-yl)methyl)phenoxy)methyl)-1-methyl-1H-benzo[d]imidazol-6-yl hydrogen sulfate formation at 1 to 5 mg/kg, po administered as single dose via gavage by LC-MS/MS analysis; assay type: ADME, organism-based; parameters: dose 1-5 mg/kg, dosed compound name [14C]Rivoglitazone, route oral; conditions: in vivo
[32] = AUC (0 to t) in F344/DuCrlCrlj rat at 0.5 mg/kg, po administered via gavage by LC-MS/MS analysis; assay type: ADME, organism-based; parameters: dose 0.5 mg/kg, dosed compound name [14C]Rivoglitazone, route oral; conditions: plasma
[33] = Total clearance in monkey at 0.0986 mg/kg, iv administered via tail vein by LC-MS/MS analysis; assay type: ADME, organism-based, Macaca mulatta; parameters: dose 0.0986 mg/kg, dosed compound name [14C]Rivoglitazone, route intravenous; conditions: rhesus monkey, in vivo
[34] = AUC (0 to infinity) in monkey at 0.493 mg/kg, po administered via gavage by LC-MS/MS analysis; assay type: ADME, organism-based, Macaca mulatta; parameters: time infinity, dose 0.493 mg/kg, dosed compound name [14C]Rivoglitazone, route oral; conditions: rhesus monkey, plasma

AUC(0-t) [1]: 22300 ng·h/mL
half-life [2]: 4.35 h
AUC(0-t) [3]: 21700 ng·h/mL
Retention_time [4]: 23 min
Tmax [5]: 2.25 h
Tmax [6]: 3.5 h
Compound recovery (Rattus norvegicus): metabolite_detected
AUC(0-inf) [7]: 4670 ng·h/mL
CL/F [8]: 0.354 mL/min/kg
AUC(0-inf) [9]: 43100 ng·h/mL
AUC(0-t) [10]: 3440 ng·h/mL
CL/F [11]: 0.41 mL/min/kg
Cmax [12]: 2930 ng/mL
half-life [13]: 4.98 h
dose excreted [14]: 23.7%
clearance [15]: 0.31 mL/min/kg
half-life [16]: 7.56 h
clearance [17]: 0.371 mL/min/kg
Tmax [18]: 3 h
bioavailability [19]: 106%
Compound recovery (Plasma [20]): metabolite_detected
clearance [21]: 0.333 mL/min/kg
dose excreted [22]: 0.3%
AUC(0-t) [23]: 3800 ng·h/mL
dose excreted [24]: 23.7%
Vd [25]: 0.131 L/kg
CL/F [26]: 0.304 mL/min/kg
Cmax [27]: 409 ng/mL
half-life [28]: 6.38 h
Tmax [29]: 4.25 h
half-life [30]: 4.5 h
Compound recovery (Plasma [31]): metabolite_detected
AUC(0-t) [32]: 21000 ng·h/mL
clearance [33]: 0.312 mL/min/kg
AUC(0-inf) [34]: 17700 ng·h/mL
Structure (SMILES): COc1ccc2nc(COc3ccc(CC4SC(=O)NC4=O)cc3)n(C)c2c1.Cl (racemic)
